Source: patent US20060281813A1, “Methods of treating hyperproliferative cell disorders” (priority 2003, published 2006)

Assays:
[1] = test system: non small cell lung cancer; assay: Example 2: patient with non small cell lung cancer; assay type: in vivo, human; details: 75 mg per day with IRESSA 250 mg per day for two months
Protocol: A patient suffering from non small cell lung cancer was treated with IRESSA® (250 mg per day) for two months. The disease progressed during the treatment and thae patient was continued on IRESSA® (250 mg per day) with daily dosage of 4-oxo-retinol (75 mg per day) for two months. The disease became stable and the patient continued taking IRESSA® (250 mg per day) for 4 more months without 4-oxo-retinol with a stale disease.

[2] = test system: breast cancer, prostate cancer or leukemia; assay: Example 4: patients with breast cancer, prostate cancer or leukemia; assay type: in vivo, human; details: oral 100 mg/square meter with oral IRESSA
[3] = test system: advanced head and neck cancer; assay: Example 5: patients with advanced head and neck cancer; assay type: in vivo, human; details: oral 100 mg/square meter with oral IRESSA or intravenous C-225
From the text: Current systemic chemotherapy regimens are unable to prolong survival of patients with advanced head and neck cancer.

lung cancer [4] = assay: Example 6: patients with lung cancer; assay type: in vivo, human; details: oral 100 mg/square meter with oral IRESSA
lung cancer [5] = assay: Example 7: lung cancer patients with disease progression on IRESSA alone; assay type: in vivo, human; details: added to IRESSA, oral 100 mg/square meter, optionally calcitriol 0.1-1 mcg per day
monomeric mouse RARa = biological target: T1, monomeric mouse RARa (Mus musculus, UniProt P11416); details: read-out: IC50, ability to displace all-trans RA; cited from earlier work
T1 sequence (P11416 1-462): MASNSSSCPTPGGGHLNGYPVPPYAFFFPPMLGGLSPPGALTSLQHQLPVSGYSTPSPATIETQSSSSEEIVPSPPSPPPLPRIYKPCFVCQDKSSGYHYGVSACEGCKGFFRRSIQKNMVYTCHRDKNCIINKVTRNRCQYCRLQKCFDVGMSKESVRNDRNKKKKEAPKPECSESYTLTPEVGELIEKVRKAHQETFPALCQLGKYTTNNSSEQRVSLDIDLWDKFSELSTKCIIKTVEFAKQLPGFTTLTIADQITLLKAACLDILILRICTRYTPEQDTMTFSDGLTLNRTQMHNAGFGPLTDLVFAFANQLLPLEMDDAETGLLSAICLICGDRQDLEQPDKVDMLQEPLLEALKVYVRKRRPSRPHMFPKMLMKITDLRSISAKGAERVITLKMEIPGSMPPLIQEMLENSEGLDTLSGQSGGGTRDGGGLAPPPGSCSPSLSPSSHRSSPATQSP

monomeric mouse RAR b = biological target: T2, monomeric mouse RAR b (Mus musculus, UniProt P22605); details: read-out: IC50, ability to displace all-trans RA; cited from earlier work
T2 sequence (P22605 1-482): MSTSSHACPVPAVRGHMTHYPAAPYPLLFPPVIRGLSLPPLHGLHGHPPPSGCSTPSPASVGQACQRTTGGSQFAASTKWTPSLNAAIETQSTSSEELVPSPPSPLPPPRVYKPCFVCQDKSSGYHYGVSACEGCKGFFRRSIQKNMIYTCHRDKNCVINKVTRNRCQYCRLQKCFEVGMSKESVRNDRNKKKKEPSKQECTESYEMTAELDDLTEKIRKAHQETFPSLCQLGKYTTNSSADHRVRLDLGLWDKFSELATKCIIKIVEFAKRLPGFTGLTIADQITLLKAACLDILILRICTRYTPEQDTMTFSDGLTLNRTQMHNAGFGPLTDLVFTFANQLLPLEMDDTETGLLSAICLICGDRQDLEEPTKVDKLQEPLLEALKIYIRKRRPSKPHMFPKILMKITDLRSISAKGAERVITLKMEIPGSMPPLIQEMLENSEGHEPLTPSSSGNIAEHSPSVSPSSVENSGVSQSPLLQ

RARγ = biological target: T3, RARγ (Mus musculus, UniProt P18911); details: read-out: IC50, ability to displace all-trans RA; cited from earlier work
T3 sequence (P18911 1-458): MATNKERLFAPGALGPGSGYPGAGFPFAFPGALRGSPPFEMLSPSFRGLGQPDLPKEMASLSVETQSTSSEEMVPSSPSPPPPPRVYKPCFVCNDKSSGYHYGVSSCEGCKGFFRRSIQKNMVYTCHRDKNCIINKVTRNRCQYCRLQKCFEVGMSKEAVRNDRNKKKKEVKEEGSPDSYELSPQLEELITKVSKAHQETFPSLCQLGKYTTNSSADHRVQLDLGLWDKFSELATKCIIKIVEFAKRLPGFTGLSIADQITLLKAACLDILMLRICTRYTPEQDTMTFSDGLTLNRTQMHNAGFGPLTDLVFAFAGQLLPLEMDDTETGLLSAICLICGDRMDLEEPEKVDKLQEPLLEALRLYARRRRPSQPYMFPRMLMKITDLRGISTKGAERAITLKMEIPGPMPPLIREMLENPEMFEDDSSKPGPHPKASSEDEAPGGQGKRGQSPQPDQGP

[6] = test system: retinoid receptor subtype; details: competition with all-trans RA; cited from earlier work
[7] = biological target: T4, RARg ligand binding domain (Homo sapiens, UniProt P13631); details: CV-1 cell transfectants, cited from earlier work
T4 construct: expressed in transfected cells; host or cells: CV-1 cells
T4 sequence (P04386 1-147 partner limits assumed, species assumed, one chain of several): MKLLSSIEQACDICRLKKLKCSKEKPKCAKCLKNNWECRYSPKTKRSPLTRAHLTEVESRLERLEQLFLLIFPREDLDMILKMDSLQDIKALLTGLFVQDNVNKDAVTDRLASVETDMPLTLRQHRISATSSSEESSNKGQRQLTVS

F9 cells = details: similar to all-trans RA; cited from earlier work
Xenopus laevis = Xenopus laevis system; cited from earlier work
[8] = test system: F9 embryonal mouse teratocarcinoma cells; details: in F9 cells; cited from earlier work
ER+ or ER− tumor lines = details: all the ER+ or ER− tumor lines examined; cited from earlier work

## CC(C=CC1=C(C)C(=O)CCC1(C)C)=CC=CC(C)=CCO [4-oxo-retinol]
[1]
  disease course: stable
[2]
  tumor burden versus IRESSA alone: reduced tumor burden
[3]
  survival rate versus IRESSA or C-225 alone: better survival rate
Lung cancer [4]
  tumor burden versus IRESSA alone: reduced tumor burden
Lung cancer [5]
  tumor burden: reduced tumor burden
Monomeric mouse RARa
  IC50: 330 nM
Monomeric mouse RAR b
  IC50: 420 nM
RARγ
  IC50: 3.2 µM
[6]
  displacement of all-trans RA: Neither compound efficiently displaced all-trans RA
[7]; chimera with ligand binding domain of RARg
  activity on GAL4 chimeras by RAR ligand binding domain: highest activity
[7]
  RARg activation compared with all-trans RA: greater ability to induce RARg activation than all-trans RA
F9 cells
  differentiation of F9 cells: induces differentiation
Xenopus laevis
  ED50, teratogenicity: 300 to 400 nM
[8]
  half-life: > 15 h
ER+ or ER− tumor lines
  growth inhibition: growth inhibitory
